Assay results from the supplement of paper PMC10307832.

compound: C1CCC(CC1)N(CCNCCC2=C3C(=C(C=C2)O)NC(=O)CO3)C(=O)CCNCCC4=CC(=C(C=C4)Cl)Cl [AZ505] + Cc1cc(Nc2cc(N3CCN(C)CC3)nc(Sc3ccc(NC(=O)C4CC4)cc3)n2)n[nH]1 [Tozasertib] (partner 0.1 µM); experiment: relative viability (nuclei count vs DMSO), 5 days (fraction); higher = more cells survive; conditions: first compound 0.08 µM
Procedure, shortened: (§1)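 Lung cancer cell lines in 1536-well plates were dosed by pin tool the day after seeding, either with one drug alone or with a fixed anchor-drug dose plus five library-drug doses (not always all listed) in √10 steps. After 5 days, cells were fixed and their nuclei stained in one step (final 0.05% Triton X-100, 1% formaldehyde, 1 ug/ml Hoechst), then counted on 4× images. Relative viability is the nuclei count in treated wells divided by that in vehicle wells. Values are medians of duplicate plates.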

Cell Line	relative viability
NCI-H2170	0.845
NCI-H2405	0.508
HOP-62	0.386
BEN	0.443
HARA	0.165
HCC-78	0.351
NCI-H322M	0.451
LCLC-97TM1	0.218
A-427	0.211
NCI-H441	0.564
NCI-H1734	0.259
NCI-H460	0.481
NCI-H2347	0.492
NCI-H1395	0.781
201T	0.896
NCI-H1915	0.422
HCC-827	0.421
LXF-289	0.2
NCI-H23	0.388
NCI-H647	0.46
CAL-12T	0.298
NCI-H1651	0.65
NCI-H1355	0.57
NCI-H3122	0.381
NCI-H1437	0.396
NCI-H1755	0.526
HCC-15	0.363
NCI-H1793	0.392
PC-14	0.549
EKVX	0.372

same assay, conditions: first compound 0.253 µM

Cell Line	relative viability
NCI-H2170	0.715
NCI-H2405	0.594
HOP-62	0.436
LU99A	0.306
BEN	0.545
HARA	0.102
HCC-78	0.65
NCI-H322M	0.478
LCLC-97TM1	0.196
A-427	0.177
NCI-H441	0.546
NCI-H1734	0.276
NCI-H460	0.0927
NCI-H1395	0.823
201T	1.08
NCI-H1915	0.447
HCC-827	0.426
LXF-289	0.172
NCI-H647	0.425
CAL-12T	0.426
NCI-H1651	0.784
EPLC-272H	0.392
NCI-H1355	0.534
NCI-H3122	0.401
NCI-H1437	0.424
NCI-H1755	0.595
HCC-15	0.299
NCI-H1793	0.346
PC-14	0.594
EKVX	0.354

same assay, conditions: first compound 0.8 µM

Cell Line	relative viability
NCI-H2170	0.641
NCI-H2405	0.45
HOP-62	0.385
LU99A	0.279
BEN	0.458
HARA	0.0957
HCC-78	0.381
NCI-H322M	0.467
LCLC-97TM1	0.214
A-427	0.194
NCI-H441	0.625
NCI-H1734	0.243
NCI-H460	0.551
NCI-H1395	0.625
201T	0.905
NCI-H1915	0.432

Cell Line	relative viability
HCC-827	0.448
LXF-289	0.183
NCI-H23	0.392
NCI-H647	0.277
CAL-12T	0.308
NCI-H1651	0.633
EPLC-272H	0.282
NCI-H1355	0.586
NCI-H3122	0.436
NCI-H1437	0.382
NCI-H1755	0.602
HCC-15	0.36
NCI-H1793	0.386
PC-14	0.586
EKVX	0.435

same assay, conditions: first compound 2.53 µM

Cell Line	relative viability
NCI-H2170	0.741
NCI-H2405	0.516
HOP-62	0.427
LU99A	0.286
BEN	0.504
HARA	0.106
HCC-78	0.312
NCI-H322M	0.484
LCLC-97TM1	0.316
A-427	0.187
NCI-H441	0.534
NCI-H1734	0.219
NCI-H460	0.204
NCI-H1395	0.695
201T	0.943
NCI-H1915	0.416
HCC-827	0.436
LXF-289	0.21
NCI-H23	0.402
NCI-H647	0.372
CAL-12T	0.303
NCI-H1651	0.725
EPLC-272H	0.316
NCI-H1355	0.534
NCI-H3122	0.355
NCI-H1437	0.391
NCI-H1755	0.646
HCC-15	0.344
PC-14	0.509
EKVX	0.38

same assay, conditions: first compound 8 µM

Cell Line	relative viability
NCI-H2170	0.766
NCI-H2405	0.503
HOP-62	0.383
LU99A	0.332
BEN	0.426
HARA	0.0964
HCC-78	0.345
NCI-H322M	0.465
LCLC-97TM1	0.302
A-427	0.216
NCI-H441	0.589
NCI-H1734	0.215
NCI-H460	0.299
NCI-H2347	0.54
NCI-H1395	0.767
201T	0.875

Cell Line	relative viability
NCI-H1915	0.399
HCC-827	0.447
LXF-289	0.229
NCI-H23	0.327
NCI-H647	0.363
CAL-12T	0.302
NCI-H1651	0.606
EPLC-272H	0.25
NCI-H1355	0.527
NCI-H3122	0.411
NCI-H1437	0.403
NCI-H1755	0.564
HCC-15	0.322
NCI-H1793	0.384
PC-14	0.554
EKVX	0.378

compound: C1CCC(CC1)N(CCNCCC2=C3C(=C(C=C2)O)NC(=O)CO3)C(=O)CCNCCC4=CC(=C(C=C4)Cl)Cl [AZ505] + NC(=O)Nc1cc(-c2cccc(F)c2)sc1C(=O)N[C@H]1CCCNC1 [AZD7762] (partner 0.2 µM); experiment: as above; conditions: first compound 0.08 µM
Procedure, shortened: as §1

Cell Line	relative viability
NCI-H2170	0.825
NCI-H2405	0.45
HOP-62	0.43
LU99A	0.341
BEN	0.594
HARA	0.354
NCI-H322M	0.629
LCLC-97TM1	0.427
A-427	0.695
NCI-H441	0.876
NCI-H1734	0.519
NCI-H460	0.701
NCI-H2347	0.548
NCI-H1395	0.407
201T	0.63
NCI-H1915	0.707
HCC-827	0.25
LXF-289	1.07
NCI-H23	0.228
NCI-H647	0.344
CAL-12T	0.62
NCI-H1651	0.43
EPLC-272H	0.451
NCI-H1355	0.677
NCI-H3122	0.923
NCI-H1437	1.07
NCI-H1755	0.348
HCC-15	0.711
NCI-H1793	0.466
PC-14	0.366

same assay, conditions: first compound 0.253 µM

Cell Line	relative viability
NCI-H2170	0.901
HOP-62	0.328
LU99A	0.54
BEN	0.433
LCLC-97TM1	0.111
A-427	0.618
NCI-H441	1.14
NCI-H1734	0.333
NCI-H460	0.522
NCI-H2347	0.659
201T	0.572
NCI-H1915	0.753
HCC-827	0.163
LXF-289	1.04
NCI-H23	0.146
NCI-H647	0.226
CAL-12T	0.647
NCI-H1651	0.412
EPLC-272H	0.253
NCI-H1355	0.474
NCI-H3122	1.01
NCI-H1437	1.17
NCI-H1755	0.471
HCC-15	1.24
NCI-H1793	0.513
PC-14	0.317
EKVX	0.629

same assay, conditions: first compound 0.8 µM

Cell Line	relative viability
NCI-H2170	0.821
NCI-H2405	0.605
HOP-62	0.682
LU99A	0.358
BEN	0.621
HARA	0.33
HCC-78	0.75
NCI-H322M	0.582
LCLC-97TM1	0.301
A-427	0.705
NCI-H441	1.06
NCI-H1734	0.526
NCI-H460	0.623
NCI-H2347	0.554
NCI-H1395	0.413
201T	0.688

Cell Line	relative viability
NCI-H1915	0.7
HCC-827	0.49
LXF-289	1.14
NCI-H23	0.255
NCI-H647	0.539
CAL-12T	0.605
NCI-H1651	0.472
EPLC-272H	0.433
NCI-H1355	0.757
NCI-H3122	1
NCI-H1437	1.08
NCI-H1755	0.495
HCC-15	1.24
NCI-H1793	0.574
PC-14	0.391
EKVX	0.849

same assay, conditions: first compound 2.53 µM

Cell Line	relative viability
NCI-H2170	0.92
NCI-H2405	0.605
HOP-62	0.63
BEN	0.758
HARA	0.693
HCC-78	0.719
NCI-H322M	0.616
LCLC-97TM1	0.317
A-427	0.715
NCI-H441	1.36
NCI-H1734	0.494
NCI-H460	0.483
NCI-H2347	0.553
NCI-H1395	0.386
201T	0.596
NCI-H1915	0.727

Cell Line	relative viability
HCC-827	0.204
LXF-289	1.03
NCI-H23	0.268
NCI-H647	0.576
CAL-12T	0.575
NCI-H1651	0.467
EPLC-272H	0.424
NCI-H1355	0.689
NCI-H3122	0.974
NCI-H1437	1.14
NCI-H1755	0.421
HCC-15	1.13
NCI-H1793	0.404
PC-14	0.354
EKVX	0.678

same assay, conditions: first compound 8 µM

Cell Line	relative viability
NCI-H2170	0.966
NCI-H2405	0.665
HOP-62	0.669
LU99A	0.361
BEN	0.759
HARA	0.351
HCC-78	0.558
NCI-H322M	0.545
LCLC-97TM1	0.354
A-427	0.647
NCI-H441	1.54
NCI-H1734	0.576
NCI-H460	0.621
NCI-H2347	0.578
NCI-H1395	0.382
201T	0.613

Cell Line	relative viability
NCI-H1915	0.716
HCC-827	0.263
LXF-289	1.16
NCI-H23	0.157
NCI-H647	0.722
CAL-12T	0.814
NCI-H1651	0.48
EPLC-272H	0.343
NCI-H1355	0.858
NCI-H3122	1.03
NCI-H1437	1.17
NCI-H1755	0.432
HCC-15	1.42
NCI-H1793	0.407
PC-14	0.372
EKVX	0.746

compound: Cn1c(=O)n(-c2ccc(C(C)(C)C#N)cc2)c2c3cc(-c4cnc5ccccc5c4)ccc3ncc21 [Dactolisib] + Cc1nc(NC(=O)N2CCC[C@H]2C(N)=O)sc1-c1ccnc(C(C)(C)C(F)(F)F)c1 [Alpelisib] (partner 2 µM); experiment: as above; conditions: first compound 0.002 µM
Procedure, shortened: as §1

Cell Line	relative viability
NCI-H2170	0.787
NCI-H2405	0.683
HOP-62	1.19
LU99A	0.483
